How the values were obtained:
OVCAR8.EGFP.ffluc cells = experiment: In vitro synergy experiment, Chou-Talalay analysis; type: cell-based, human; conditions: cisplatin <1 μM
Description: Tumor cells were plated at 3×10^3 cells per well in 96-well plates. Select wells also received NSC.CRAd-Survivin-pk7 at either a 1:1, 1:10, or 1:100 ratio. […] Cultures were incubated for 3 more days. Upon collection, media were replaced with that containing D-luciferin ([…]), and after a 10-min incubation, the resulting luminescent signal was quantified using a SpectraMax M3 microplate reader (Molecular Devices, CA, USA). Results are expressed as the percentage of surviving cells determined by comparing the luciferase signal of each sample relative to untreated control samples considered 100% viable. […] Each condition was replicated in quadruplet, and the experiment was conducted twice.

[1] = tested on: OVCAR8.EGFP flank xenografts; experiment: Subcutaneous flank OVCAR8 xenograft model; type: in vivo, mouse
Description: Female athymic nude mice 6-8 weeks of age (Charles River) were maintained under specific pathogen-free conditions at the COH Animal Resource Center, and all procedures were reviewed and approved by the COH Animal Care Committee. A subcutaneous flank xenograft model in nude mice was established using an EGFP and firefly luciferase-expressing ovarian cancer cell line, 2×10^6 OVCAR8.EGFP.ffluc. […] The mice were treated for […] with 1 week off in between each cycle. […] Tumor burden was evaluated via caliper measurements twice weekly over a 5-week period.
Mice began treatments approximately 2 weeks after injection of 5 million OVCAR8.EGFP cells, when the tumors were on average 0.5 cm in diameter (Table 3). The mice were treated for two cycles. Each cycle was 2 weeks long, consisting of 1 week on therapy and 1 week off. Tumor burden was evaluated via caliper measurements twice weekly over a 5-week period.

OVCAR8 peritoneal tumors = experiment: PCR biodistribution of NSCs and virus in peritoneal tumors with or without cisplatin; type: in vivo; conditions: 2 days after administration, three tumors per mouse
Description: Female NOD-SCID mice (Jackson Labs) that were 6-8 weeks old were inoculated with 2 million OVCAR8.eGFP.ffluc cells via i.p. injection. After 3 weeks, mice (n=3) were administered i.p. 2×10^6 Dil-labeled NSC-CRAd-Survivin-pk7. Two days after NSC injection, tumors were harvested. Three tumors per mouse were digested using proteinase K, DNA was extracted (DNA Extraction from fixed tissues kit, Puragene), quantified using a nanodrop, then amplified by PCR using primers for v-Myc and hexon to test for the presence of NSCs and viral particles respectively. GAPDH was used as a loading control (351 bp). DNA purified from unmodified NSCs and NSC-CRAd-Survivin-pk7 was used as a positive control for PCR amplification of the v-Myc gene (replicon size 170 bp), and hexon (179 bp) respectively. Pure water was used as a negative control. PCR products were analyzed by agarose gel electrophoresis and staining of DNA bands with ethidium bromide. […] Sections (10 μm thick) were collected on positively charged slides (Thermo Fisher Scientific), immunostained for hexon (Goat Anti-Adenovirus FITC Conjugated Polyclonal Antibody, AB1056F, Millipore), counterstained with DAPI (1 ug/mL, Sigma), then imaged using the Zeiss Axio Observer Z1 fluorescence microscope (ZEISS Microscopy). […]

[2] = tested on: survivin expression in OVCAR8 cell line; experiment: RT-PCR analysis of survivin expression after cisplatin, OVCAR8; type: cell-based, human; conditions: up to 2 days of cisplatin exposure; data not shown
[3] = tested on: survivin expression in SKOV3 cell line; experiment: RT-PCR analysis of survivin expression after cisplatin, SKOV3; type: cell-based, human; conditions: up to 2 days of cisplatin exposure; data not shown

Structure (SMILES): N.N.[Cl][Pt][Cl] [cisplatin]
- effect of low doses of cisplatin on OVCAR8 tumor cells (OVCAR8.EGFP.ffluc cells): unaffected
- tumor volume doubling time after the first treatment ([1]; control 7 days): 13 days
- tumor volume doubling time after the second treatment ([1]; control 15 days): not significantly different from that of the saline control
- hexon DNA detected in tumors (virus) (OVCAR8 peritoneal tumors): Neither hexon nor v-myc DNA was detected
- v-myc DNA detected in tumors (NSCs) (OVCAR8 peritoneal tumors): Neither hexon nor v-myc DNA was detected
- survivin expression after cisplatin exposure [2]: did not significantly increase
- survivin expression after cisplatin exposure [3]: did not significantly increase
